The values that follow come from US20140242093A1, “METHODS AND COMPOSITIONS FOR MODULATING THE INNATE IMMUNE RESPONSE AND/OR MYOGENESIS IN A MAMMALIAN SUBJECT” (FRED HUTCHINSON CANCER RESEARCH CENTER, priority 2011, published 2014).

One experiment deals with FSHD muscle cells. Briefly: DUX4-fl mRNA RT-PCR in FSHD muscle cells treated with MAO inhibitors. It counts as cell-based, human. The settings on record: for abundance of DUX4-fl mRNA: quantitative RT-PCR, FIG. 4. The source says: Middle panel is a no RT control and bottom panel is a GAPDH loading control.
The test system of a further experiment is HCT116 cells. Briefly: RT-PCR of DUX4-fl and cancer testis antigens in HCT116 cells treated with azacytidine. Format: cell-based, human. As for the experimental part: The relative expression of the CTA in each row was measured by RT-PCR and represented as high (light shading) or low (dark shading).
A further experiment relates to FSHD fibroblasts. Nature of the experiment: DUX4 mRNA decay with cycloheximide in FSHD fibroblasts with inducible MyoD. The settings on record: 38 hours in differentiation conditions, MyoD induction. Format: cell-based, human. As for the experimental part:
FSHD fibroblasts expressing low amounds of DUX4 mRNA were stably transduced with a beta-estradiol inducible MyoD so that addition of beta-estradiol will convert them to skeletal muscle, which after 96 hours of induction increases the steady-state levels of the DUX4 mRNA and activates expression of the MyoD target Mgn. […] Washout of the chx results in the rapid loss of the DUX4 mRNA, disappearing between 2 and 8 hrs of washout. The loss of DUX4 mRNA is associated with its translation since the DUX4 target PRAME 1 is induced as the DUX4 mRNA disappears.

The subject of experiment [1] is control human primary myoblasts. Briefly: Expression microarray of primary myoblasts transduced with lentivirus carrying DUX4-fl, DUX4-s or GFP. As for the experimental part:
Primary human myoblasts were collected and cultured as previously described (Snider et al., 2010). Primary myoblasts were maintained at or below 70% confluency for proliferation. For differentiation, cells were allowed to reach 95-100% confluency in growth medium. Once confluency was reached, the cells were changed to differentiation medium (F10 media supplemented with 1% horse serum, 10 μg/mL insulin, and 10 μg/mL transferrin, penicillin/streptomycin) and maintained for 4 days. Human RD cells were grown in DMEM in 10% bovine calf serum (Hyclone) and penicillin/streptomycin. The primary myoblasts were transduced with lentivirus carrying DUX-fl, DUX4- or GFP (MOI=15).
Expression microarrays were performed on the transduced cells at 24 hours after transduction as follows. […] Samples were analyzed by Illumina Human Whole Genome microarrays. Probe intensities were corrected, normalized, and summarized by the Lumi package of Bioconductor (Du et al., 2008). Differentially expressed genes were identified by the LIMMA package of Bioconductor (Wettenhall and Smyth, 2004). Gene set enrichment analysis (GSEA) was performed using the Bioconductor GOstats package (Falcon and Gentleman, 2007).

A further experiment has as its system Human FSHD myoblasts. Nature of the experiment: siRNA knock-down of UPF1 in FSHD myoblasts. It counts as cell-based. As for the experimental part: Method for transfection of myoblasts with siUPF1 (siRNA against UPF1): Human FSHD myoblasts were plated for transfection at 30% confluency in F10 media containing 20% FBS and no antibiotics. siRNA targeting siUPF1 (ThermoScientific) was transfected at 100 nM final concentration using Lipofectamine 2000 according to manufacturers protocol. siLuciferase was used as a negative control. Following overnight incubation of cells with transfection complexes the cells were washed with PBS and fed fresh growth media: F10 media, 20% FBS, dexamethasone (1 uM) and fgf (10 ng/ml). When cultures reached confluency growth media was replaced with serum free differentiation media (F10 media, insulin and transferrin at 10 ug/ml each) and culture continued for 48 hours. Total RNA was isolated using Qiagen RNeasy columns and analysis for expression of Dux4 mRNA and for target gene activation was performed.

Regarding `N[C@@H]1C[C@H]1c1ccccc1` (racemic) [tranylcypromine], the “abundance of DUX4-fl mRNA” value in the experiment on FSHD muscle cells is on record as “had no inhibitory effect”.

On to `Nc1ncn([C@@H]2O[C@H](CO)[C@@H](O)[C@H]2O)c(=O)n1` [5-azacytidine], for which the “expression of cancer testis antigens” value in the experiment with HCT116 cells (RT-PCR heat map FIG. 3, HCT116 cells) is “robust induction”. The DUX4-fl expression result in the experiment with HCT116 cells (RT-PCR, HCT116 cells) is “induces the expression of DUX4-fl”.

For the compound `C[C@@H]1C[C@@H]([C@H](O)CC2CC(=O)NC(=O)C2)C(=O)[C@@H](C)C1` [cycloheximide], the “DUX4 mRNA” value in the experiment with FSHD fibroblasts is “significant increase in DUX4 mRNA”.

`C#CCN(C)Cc1ccccc1` [pargyline, N-Benzyl-N-methylprop-2-yn-1-amine]: the “DUX4 mRNA expression” value with FSHD muscle cells (RT-PCR, 48 hours in differentiation medium, varying amounts, FIG. 5) was “dose-dependent inhibition of DUX4 expression”. In the experiment on FSHD muscle cells, the “abundance of DUX4-fl mRNA” value is on record as “decreases the abundance of DUX4-fl mRNA in a dose-dependent manner”.

DUX4: the Fc range in experiment [1] (Family with sequence similarity 90: FAM90A1, FAM90A2P, FAM90A6P, FAM90A7) is 9-19; in experiment [1] (KH homology domain containing family: KHDC1, KHDC1L) it was 108-258; in experiment [1] (Methyl-binding protein-like family: MBD3L2, MBD3L3, MBD3L5), 197-310; in experiment [1] (Preferentially expressed in melanoma family: PRAMEF1, PRAMEF2, PRAMEF4-15, PRAMEF17, PRAMEF20), 9-269; in experiment [1] (Ret-finger Protein-like family: RFPL1, RFPL1S, RFPL2, RFPL3, RFPL4A, RFPL4B), 20-336; in experiment [1] (Tripartite motif-containing family: TRIM43, TRIM48, TRIM49, TRIM53, TRIM64), 27-235. Moreover, the Fc range in experiment [1] (Zinc finger and SCAN domain containing family: ZSCAN4, ZSCAN5B, ZSCAN5D) is listed as 13-320.

Turning to GAUGCAGUUCCGCUCCAUUUU [siUPF1], the “expression of DUX4 target gene ZSCAN4” value in the experiment on Human FSHD myoblasts (RT-qPCR) is “increases”. Further, the “DUX4 mRNA” value with Human FSHD myoblasts (semiquantitative RT-PCR, differentiation medium, vs siluc) is on record as “at higher levels”.
